From ChEMBL document CHEMBL1151840, “Synthetic oligoribonucleotides containing arabinonucleotides act as agonists of TLR7 and 8” (Bioorg Med Chem Lett, 2009) come the findings set out here.

Series [1] in a line: Stability in human serum assessed as full-length compound remaining after 10 mins by anion-exchange HPLC. In kind it is ADME, cell-free. To be noted: read-out: Stability.
The target of series [2] is T1, Toll-like receptor 8 (Homo sapiens) (UniProt Q9NR97).
T1 sequence (whole entry): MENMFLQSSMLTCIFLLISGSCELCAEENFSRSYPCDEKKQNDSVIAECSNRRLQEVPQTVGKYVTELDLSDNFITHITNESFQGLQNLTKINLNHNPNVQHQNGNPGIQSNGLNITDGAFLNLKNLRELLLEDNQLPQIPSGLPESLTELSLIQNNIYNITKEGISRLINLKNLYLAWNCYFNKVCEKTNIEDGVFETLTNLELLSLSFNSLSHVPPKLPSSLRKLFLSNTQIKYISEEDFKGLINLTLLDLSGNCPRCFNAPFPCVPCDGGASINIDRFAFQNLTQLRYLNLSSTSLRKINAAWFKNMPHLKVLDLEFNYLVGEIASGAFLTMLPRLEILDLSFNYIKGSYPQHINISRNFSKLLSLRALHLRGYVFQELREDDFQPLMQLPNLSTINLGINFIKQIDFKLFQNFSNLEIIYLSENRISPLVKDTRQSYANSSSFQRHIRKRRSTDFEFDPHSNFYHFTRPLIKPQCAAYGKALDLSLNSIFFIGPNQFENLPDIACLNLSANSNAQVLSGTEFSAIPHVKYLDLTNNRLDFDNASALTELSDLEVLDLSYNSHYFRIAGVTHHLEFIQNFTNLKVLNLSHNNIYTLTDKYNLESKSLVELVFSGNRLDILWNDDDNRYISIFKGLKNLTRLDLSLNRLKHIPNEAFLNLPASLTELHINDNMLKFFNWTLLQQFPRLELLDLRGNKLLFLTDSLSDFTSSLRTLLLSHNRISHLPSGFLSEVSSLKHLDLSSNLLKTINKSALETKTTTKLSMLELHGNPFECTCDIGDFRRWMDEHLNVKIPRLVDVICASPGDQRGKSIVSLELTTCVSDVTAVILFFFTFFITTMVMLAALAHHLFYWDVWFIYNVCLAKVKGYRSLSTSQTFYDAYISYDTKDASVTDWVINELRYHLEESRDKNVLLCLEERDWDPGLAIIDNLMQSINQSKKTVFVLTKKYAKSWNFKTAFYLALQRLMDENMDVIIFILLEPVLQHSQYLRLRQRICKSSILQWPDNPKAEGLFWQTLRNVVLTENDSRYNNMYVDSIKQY
Description: Agonist activity at human TLR8 expressed in HEK293XL cells assessed as NF-kappaB activation after 18 hrs. It counts as functional, cell-based.

The target in series [3] is T2, Toll-like receptor 7 (Homo sapiens) (UniProt Q9NYK1).
T2 sequence (whole entry): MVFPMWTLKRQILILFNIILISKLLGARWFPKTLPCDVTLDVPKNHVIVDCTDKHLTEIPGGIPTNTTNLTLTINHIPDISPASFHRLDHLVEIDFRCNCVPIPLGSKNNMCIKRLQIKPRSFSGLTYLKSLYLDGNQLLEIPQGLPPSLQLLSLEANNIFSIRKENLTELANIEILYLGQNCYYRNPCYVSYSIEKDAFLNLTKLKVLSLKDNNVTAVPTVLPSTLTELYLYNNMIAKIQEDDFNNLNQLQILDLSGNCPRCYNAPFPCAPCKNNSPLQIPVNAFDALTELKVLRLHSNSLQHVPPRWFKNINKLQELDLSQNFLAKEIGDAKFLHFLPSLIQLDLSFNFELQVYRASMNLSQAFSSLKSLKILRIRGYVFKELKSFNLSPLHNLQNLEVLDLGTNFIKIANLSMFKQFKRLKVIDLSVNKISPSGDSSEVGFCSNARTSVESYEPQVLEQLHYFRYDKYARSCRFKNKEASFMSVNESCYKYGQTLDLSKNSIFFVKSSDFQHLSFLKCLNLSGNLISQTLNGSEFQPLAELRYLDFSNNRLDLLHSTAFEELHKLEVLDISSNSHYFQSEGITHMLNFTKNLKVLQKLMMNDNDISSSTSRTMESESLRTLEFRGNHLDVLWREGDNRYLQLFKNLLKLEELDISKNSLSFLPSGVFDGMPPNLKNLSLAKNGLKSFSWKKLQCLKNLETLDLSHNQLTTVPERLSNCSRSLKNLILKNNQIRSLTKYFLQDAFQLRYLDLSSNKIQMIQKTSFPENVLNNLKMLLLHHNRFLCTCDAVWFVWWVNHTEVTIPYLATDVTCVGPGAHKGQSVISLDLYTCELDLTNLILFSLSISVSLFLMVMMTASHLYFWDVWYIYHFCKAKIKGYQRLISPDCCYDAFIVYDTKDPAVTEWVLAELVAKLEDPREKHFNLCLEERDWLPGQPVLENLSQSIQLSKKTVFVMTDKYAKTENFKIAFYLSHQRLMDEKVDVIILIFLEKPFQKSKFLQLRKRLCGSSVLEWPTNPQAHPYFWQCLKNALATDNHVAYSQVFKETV
Kind of series: Agonist activity at human TLR7 expressed in HEK293XL cells assessed as NF-kappaB activation at 300 ug/ml after 18 hrs. It counts as functional, cell-based.

Series [4] concerns PBMC. Kind of series: Stimulation of immune response in human PBMC assessed as induction of IL1-beta production at 150 ug/ml after 24 hrs. It counts as functional, cell-based.
Series [5] has as its system PBMC. Description: Stimulation of immune response in human PBMC assessed as induction of IL2R level at 150 ug/ml after 24 hrs. It counts as functional, cell-based.
The subject of series [6] is PBMC. Kind of series: Stimulation of immune response in human PBMC assessed as induction of IL8 production at 150 ug/ml after 24 hrs. It counts as functional, cell-based.
Series [7] has as its system PBMC. Kind of series: Stimulation of immune response in human PBMC assessed as induction of IL10 production at 150 ug/ml after 24 hrs. In kind it is functional, cell-based.
In series [8] the test system is PBMC. Description: Stimulation of immune response in human PBMC assessed as induction of IL12 production at 150 ug/ml after 24 hrs. In kind it is functional, cell-based.
Series [9] deals with PBMC. Kind of series: Stimulation of immune response in human PBMC assessed as induction of IFNalpha production at 150 ug/ml after 24 hrs. In kind it is functional, cell-based.
Series [10] has as its system PBMC. Kind of series: Stimulation of immune response in human PBMC assessed as induction of IFN-gamma production at 150 ug/ml after 24 hrs. In kind it is functional, cell-based.
Series [11] relates to PBMC. Description: Stimulation of immune response in human PBMC assessed as induction of MCP1 production at 150 ug/ml after 24 hrs. It counts as functional, cell-based.
Series [12] deals with PBMC. Description: Stimulation of immune response in human PBMC assessed as induction of RANTES production at 150 ug/ml after 24 hrs. It counts as functional, cell-based.
The subject of series [13] is PBMC. Description: Stimulation of immune response in human PBMC assessed as induction of MIP1alpha production at 150 ug/ml after 24 hrs. It counts as functional, cell-based.
In series [14] the test system is PBMC. Description: Stimulation of immune response in human PBMC assessed as induction of MIP1beta production at 150 ug/ml after 24 hrs. It counts as functional, cell-based.
For series [15], the system named is PBMC. Kind of series: Stimulation of immune response in human PBMC assessed as induction of TNFalpha production at 150 ug/ml after 24 hrs. In kind it is functional, cell-based.
For series [16], the species on record is Homo sapiens. Kind of series: Stimulation of immune response in human pDC assessed as induction of IFN-gamma production at 150 ug/ml after 24 hrs. In kind it is functional.
Series [17] is filed under the species Homo sapiens. Description: Stimulation of immune response in human pDC assessed as induction of IFNalpha production at 150 ug/ml after 24 hrs. It counts as functional.
The species named for series [18] is Homo sapiens. Description: Stimulation of immune response in human pDC assessed as induction of IL12 production at 150 ug/ml after 24 hrs. In kind it is functional.
The species named for series [19] is Homo sapiens. Kind of series: Stimulation of immune response in human pDC assessed as induction of TNFalpha production at 150 ug/ml after 24 hrs. It counts as functional.
For series [20], the species on record is Homo sapiens. Kind of series: Stimulation of immune response in human pDC assessed as induction of MIP1alpha production at 150 ug/ml after 24 hrs. In kind it is functional.
The species entered for series [21] is Homo sapiens. Kind of series: Stimulation of immune response in human pDC assessed as induction of MIP1beta production at 150 ug/ml after 24 hrs. It counts as functional.
In a further series the test system is Mus musculus. Description: Stimulation of immune response in C57BL/6 mouse assessed as induction of serum IL12 production at 50 mg/kg, sc after 2 hrs by luminex multiplex assay. In kind it is functional, organism-based. Also noted: dose 50 mg/kg.

Activity calls are given as the source filed them. The rule behind the calls is not given here.

On to `Nc1ccn([C@@H]2O[C@H](COP(=O)(S)O[C@H]3[C@@H](O)[C@H](n4ccc(=O)[nH]c4=O)O[C@@H]3COP(=O)(S)O[C@H]3[C@@H](O)[C@H](n4ccc(=O)[nH]c4=O)O[C@@H]3COP(=O)(S)O[C@H]3[C@H](O)[C@H](n4cnc5c(=O)[nH]c(N)nc54)O[C@@H]3COP(=O)(S)O[C@H]3[C@@H](O)[C@H](n4ccc(=O)[nH]c4=O)O[C@@H]3COP(=O)(S)O[C@H]3[C@H](O)[C@H](n4cnc5c(=O)[nH]c(N)nc54)O[C@@H]3COP(=O)(S)OCC(O)COP(=O)(S)O[C@H]3[C@H](O)[C@H](n4cnc5c(=O)[nH]c(N)nc54)O[C@@H]3COP(=O)(S)O[C@H]3[C@@H](O)[C@H](n4ccc(=O)[nH]c4=O)O[C@@H]3COP(=O)(S)O[C@H]3[C@H](O)[C@H](n4cnc5c(=O)[nH]c(N)nc54)O[C@@H]3COP(=O)(S)O[C@H]3[C@@H](O)[C@H](n4ccc(=O)[nH]c4=O)O[C@@H]3COP(=O)(S)O[C@H]3[C@@H](O)[C@H](n4ccc(=O)[nH]c4=O)O[C@@H]3COP(=O)(S)O[C@H]3[C@@H](O)[C@H](n4ccc(N)nc4=O)O[C@@H]3COP(=O)(S)O[C@H]3[C@H](O)[C@H](n4cnc5c(=O)[nH]c(N)nc54)O[C@@H]3COP(=O)(S)O[C@H]3[C@@H](O)[C@H](n4ccc(=O)[nH]c4=O)O[C@@H]3COP(=O)(S)O[C@H]3[C@@H](O)[C@H](n4ccc(N)nc4=O)O[C@@H]3COP(=O)(S)O[C@H]3[C@H](O)[C@H](n4cnc5c(=O)[nH]c(N)nc54)O[C@@H]3COP(=O)(S)O[C@H]3[C@@H](O)[C@H](n4ccc(=O)[nH]c4=O)O[C@@H]3CO)[C@@H](OP(=O)(S)OC[C@H]3O[C@@H](n4cnc5c(=O)[nH]c(N)nc54)[C@@H](O)[C@@H]3OP(=O)(S)OC[C@H]3O[C@@H](n4ccc(=O)[nH]c4=O)[C@H](O)[C@@H]3OP(=O)(S)OC[C@H]3O[C@@H](n4ccc(N)nc4=O)[C@H](O)[C@@H]3OP(=O)(S)OC[C@H]3O[C@@H](n4cnc5c(=O)[nH]c(N)nc54)[C@@H](O)[C@@H]3OP(=O)(S)OC[C@H]3O[C@@H](n4ccc(=O)[nH]c4=O)[C@H](O)[C@@H]3OP(=O)(O)S)[C@H]2O)c(=O)n1` (some centres not stated), for which the remaining at 10 min in [1] was determined as 76%. Further, the Activity result in series [2] was “Dose-dependent effect”. Also, the result (in [3]; in the series filed under Homo sapiens [17]; in the series with Mus musculus) was inactive. Moreover, the outcome with PBMC [4], in the series on PBMC [5], in the series with PBMC [6], with PBMC [7], in the series with PBMC [8] and with PBMC [9] was Active. Besides, the outcome in the series with PBMC [10], in the series on PBMC [11], with PBMC [12], in the series with PBMC [13], in the series on PBMC [14] and in the series on PBMC [15] was Active. Moreover, the outcome in the series filed under Homo sapiens [16], in the series listed under Homo sapiens [18], in the series filed under Homo sapiens [19], in the series listed under Homo sapiens [20] and in the series listed under Homo sapiens [21] was Active.
